Measured values from patent publication US20260015358A1, “BICYCLIC DERIVATIVES, COMPOSITIONS AND USES THEREOF” (Danatlas Pharmaceuticals Co., Ltd., priority 2023, published 2026).

Target: WRN [UniPro: Q14191 (WRN_HUMAN), N500-C946] (Homo sapiens (Human), UniProt Q14191)
Experiment: WRN unwinding assay (FORKF DNA, fluorescence)
Format: biochemical
Settings: Table 14
Protocol: WRN unwinding assay was initiated to evaluate potential inhibitory effect of compounds for WEN helicase activity. WRN [UniPro: Q14191 (WRN_HUMAN), N500-C946] was expressed and purified in insect system and stored at −80° C. in aliquots. […] Compounds dissolved in DMSO (Sigma, D8418) were plated into a 96-well intermediate plate (BioFil, VWP-032-096) for 3-fold serial titration for 10 points using DMSO, and well-to-well transfer the titrated compounds into another 96-well intermediate plate including assay buffer in advance. Shake the 96-well intermediate plate at 600 rpm for 10 min. to fully mix. Specifically, a 3× working mixture of WRN was diluted to a concentration of 60 nM in assay buffer. […] After centrifuging at 1000 rpm and shaking at 500 rpm, the assay plate was pre-incubated for 30 min. Then, […] 3×FORKF DNA and ATP working mixture was dispensed into assay plate. Plate was sealed, centrifuged and incubated for an additional 40 min. at 25° C. […] Each concentration of compound was tested in duplicates in the assay plate. Average fluorescence signal of high control (Wells with 1% DMSO) was calculated as High Control (HC). Average fluorescence signal of low control (Wells with no WRN protein) was calculated as Low control (LC).
IC50 values were determined by fitting the data to the standard 4 parameters with Hill Slope using GraphPad Prism software.

WRN [UniPro: Q14191 (WRN_HUMAN), N500-C946], sequence (Q14191 500-946): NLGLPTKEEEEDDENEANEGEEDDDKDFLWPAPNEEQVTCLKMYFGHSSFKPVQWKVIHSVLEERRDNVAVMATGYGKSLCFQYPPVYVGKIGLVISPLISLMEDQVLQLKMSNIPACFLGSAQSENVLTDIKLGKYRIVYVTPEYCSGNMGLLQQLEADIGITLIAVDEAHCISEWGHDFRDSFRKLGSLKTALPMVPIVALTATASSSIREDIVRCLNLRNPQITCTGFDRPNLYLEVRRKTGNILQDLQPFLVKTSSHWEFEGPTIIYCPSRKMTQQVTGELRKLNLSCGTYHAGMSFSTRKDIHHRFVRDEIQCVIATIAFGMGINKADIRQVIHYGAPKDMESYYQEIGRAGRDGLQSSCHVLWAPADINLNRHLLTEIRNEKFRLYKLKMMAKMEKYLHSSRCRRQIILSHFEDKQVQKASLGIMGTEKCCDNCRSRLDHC

Structure (SMILES)	IC50
CCc1c(N2CCN(C(=O)Nc3c(C(F)(F)F)ncn3Cc3ccc(OC)cc3)CC2)c(=O)n2nc(C3=CCOCC3)nc2n1CC(=O)Nc1ccc(C(F)(F)F)cc1Cl [Example 26, 4-(4-(2-((2-Chloro-4-(trifluoromethyl)phenyl)amino)-2-oxoethyl)-2-(3,6-dihydro-2H-pyran-4-yl)-5-ethyl-7-oxo-4,7-dihydro-[1,2,4]triazolo[1,5-a]pyrimidin-6-yl)-N-(1-(4-methoxybenzyl)-4-(trifluoromethyl)-1H-imidazol-5-yl)piperazine-1-carboxamide]	> 1 µM
CCc1c(N2CCN(C(=O)CNC(=O)c3ccc(Cl)cc3)CC2)c(=O)n2nc(C3=CCOCC3)nc2n1CC(=O)Nc1ccc(C(F)(F)F)cc1Cl [Example 164, 4-Chloro-N-(2-(4-(4-(2-((2-chloro-4-(trifluoromethyl)phenyl)amino)-2-oxoethyl)-2-(3,6-dihydro-2H-pyran-4-yl)-5-ethyl-7-oxo-4,7-dihydro-[1,2,4]triazolo[1,5-a]pyrimidin-6-yl)piperazin-1-yl)-2-oxoethyl)benzamide]	0.1 to 1 µM
O=C(Cn1c(O)c(N2CCN(C(=O)CNC(=O)c3ccccc3)CC2)c(=O)n2nc(C3=CCOCC3)nc12)Nc1ccc(C(F)(F)F)cc1Cl [Example 142, N-(2-(4-(4-(2-((2-Chloro-4-(trifluoromethyl)phenyl)amino)-2-oxoethyl)-2-(3,6-dihydro-2H-pyran-4-yl)-5-hydroxy-7-oxo-4,7-dihydro-[1,2,4]triazolo[1,5-a]pyrimidin-6-yl)piperazin-1-yl)-2-oxoethyl)benzamide]	0.1 to 1 µM
CCc1c(N2CCN(C(=O)CNC(=O)c3ccccc3F)CC2)c(=O)n2nc(C3=CCOCC3)nc2n1CC(=O)Nc1cc(C)no1 [Example 160, N-(2-(4-(2-(3,6-Dihydro-2H-pyran-4-yl)-5-ethyl-4-(2-((3-methylisoxazol-5-yl)amino)-2-oxoethyl)-7-oxo-4,7-dihydro-[1,2,4]triazolo[1,5-a]pyrimidin-6-yl)piperazin-1-yl)-2-oxoethyl)-2-fluorobenzamide]	> 1 µM
CCc1c(N2CCN(C(=O)CNC(=O)c3ccccc3F)CC2)c(=O)n2nc(OCCOC)nc2n1CC(=O)Nc1ccc(C(F)(F)F)cc1Cl [Example 240, N-(2-(4-(4-(2-((2-Chloro-4-(trifluoromethyl)phenyl)amino)-2-oxoethyl)-5-ethyl-2-(2-methoxyethoxy)-7-oxo-4,7-dihydro-[1,2,4]triazolo[1,5-a]pyrimidin-6-yl)piperazin-1-yl)-2-oxoethyl)-2-fluorobenzamide]	> 1 µM
CCc1c(N2CCN(C(=O)N(C)C)CC2)c(=O)n2nc(C3=CCOCC3)nc2n1CC(=O)Nc1ccc(C(F)(F)F)cc1Cl [Example 10, 4-(4-(2-((2-Chloro-4-(trifluoromethyl)phenyl)amino)-2-oxoethyl)-2-(3,6-dihydro-2H-pyran-4-yl)-5-ethyl-7-oxo-4,7-dihydro-[1,2,4]triazolo[1,5-a]pyrimidin-6-yl)-N,N-dimethylpiperazine-1-carboxamide]	> 1 µM
CCc1c(N2CC3CN(C(=O)CNC(=O)c4ccccc4F)CC3C2)c(=O)n2nc(C3=CCOCC3)nc2n1CC(=O)Nc1ccc(C(F)(F)F)cc1Cl (stereo not shown) [Example 140, N-(2-(5-(4-(2-((2-Chloro-4-(trifluoromethyl)phenyl)amino)-2-oxoethyl)-2-(3,6-di hydro-2H-pyran-4-yl)-5-ethyl-7-oxo-4,7-dihydro-[1,2,4]triazolo[1,5-a]pyrimidin-6-yl)hexahydropyrrolo[3,4-c]pyrrol-2(1H)-yl)-2-oxoethyl)-2-fluorobenzamide]	> 1 µM
CCc1c(N2CCN(C(=O)c3c[nH]c(=O)[nH]3)CC2)c(=O)n2nc(C3=CCOCC3)nc2n1CC(=O)Nc1ccc(C(F)(F)F)cc1Cl [Example 316, N-(2-Chloro-4-(trifluoromethyl)phenyl)-2-(2-(3,6-dihydro-2H-pyran-4-yl)-5-ethyl-7-oxo-6-(4-(2-oxo-2,3-dihydro-1H-imidazole-4-carbonyl)piperazin-1-yl)-[1,2,4]triazolo[1,5-a]pyrimidin-4(7H)-yl)acetamide]	0.1 to 1 µM
CCc1c(N2CCN(C(=O)CNC(=O)c3ccccc3F)CC2)c(=O)n2nc(C3=CCOCC3)nc2n1CC(=O)Nc1ccc(S(F)(F)(F)(F)F)cc1C [Example 145, N-(2-(4-(2-(3,6-Dihydro-2H-pyran-4-yl)-5-ethyl-4-(2-((2-methyl-4-(pentafluoro-16-sulfanyl)phenyl)amino)-2-oxoethyl)-7-oxo-4,7-dihydro-[1,2,4]triazolo[1,5-a]pyrimidin-6-yl)piperazin-1-yl)-2-oxoethyl)-2-fluorobenzamide]	0.1 to 1 µM
CCc1c(N2CCN(C(=O)CNC(=O)c3ccccc3F)CC2)c(=O)n2nc(N3CC(C#N)C3)nc2n1CC(=O)Nc1ccc(C(F)(F)F)cc1Cl [Example 243, N-(2-(4-(4-(2-((2-Chloro-4-(trifluoromethyl)phenyl)amino)-2-oxoethyl)-2-(3-cyanoazetidin-1-yl)-5-ethyl-7-oxo-4,7-dihydro-[1,2,4]triazolo[1,5-a]pyrimidin-6-yl)piperazin-1-yl)-2-oxoethyl)-2-fluorobenzamide]	0.1 to 1 µM
CCc1c(N2CCN(C(=O)NS(=O)(=O)C3CC3)CC2)c(=O)n2nc(C3=CCOCC3)nc2n1CC(=O)Nc1ccc(C(F)(F)F)cc1Cl [Example 34, 4-(4-(2-((2-Chloro-4-(trifluoromethyl)phenyl)amino)-2-oxoethyl)-2-(3,6-dihydro-2H-pyran-4-yl)-5-ethyl-7-oxo-4,7-dihydro-[1,2,4]triazolo[1,5-a]pyrimidin-6-yl)-N-(cyclopropylsulfonyl)piperazine-1-carboxamide]	0.1 to 1 µM

Continued, values first:

IC50	Structure (SMILES)
0.1 to 1 µM	CCc1c(N2CCN(C(=O)CNC(=O)c3c(O)cccc3F)CC2)c(=O)n2nc(C3=CCOCC3)nc2n1CC(=O)Nc1ccc(C(F)(F)F)cc1Cl [Example 294, N-(2-(4-(4-(2-((2-Chloro-4-(trifluoromethyl)phenyl)amino)-2-oxoethyl)-2-(3,6-dihydro-2H-pyran-4-yl)-5-ethyl-7-oxo-4,7-dihydro-[1,2,4]triazolo[1,5-a]pyrimidin-6-yl)piperazin-1-yl)-2-oxoethyl)-2-fluoro-6-hydroxybenzamide]
0.1 to 1 µM	CCc1c(N2CCN(C(=O)/C=C/c3cnccc3O)CC2)c(=O)n2nc(C3=CCOCC3)nc2n1CC(=O)Nc1ccc(C(F)(F)F)cc1F [Example 328, (E)-2-(2-(3,6-Dihydro-2H-pyran-4-yl)-5-ethyl-6-(4-(3-(4-hydroxypyridin-3-yl)acryloyl)piperazin-1-yl)-7-oxo-[1,2,4]triazolo[1,5-a]pyrimidin-4(7H)-yl)-N-(2-fluoro-4-(trifluoromethyl)phenyl)acetamide]
0.1 to 1 µM	CCc1c(N2CCN(C(=O)CNC(=O)c3ccccc3F)CC2)c(=O)n2nc(N3CC(OC)C3)nc2n1CC(=O)Nc1ccc(C(F)(F)F)cc1Cl [Example 242, N-(2-(4-(4-(2-((2-Chloro-4-(trifluoromethyl)phenyl)amino)-2-oxoethyl)-5-ethyl-2-(3-methoxyazetidin-1-yl)-7-oxo-4,7-dihydro-[1,2,4]triazolo[1,5-a]pyrimidin-6-yl)piperazin-1-yl)-2-oxoethyl)-2-fluorobenzamide]
0.1 to 1 µM	CCc1c(N2CCN(C(=O)CNC(=O)c3ccccc3)CC2)c(=O)n2nc(Br)nc2n1CC(=O)Nc1ccc(C(F)(F)F)cc1Cl [Example 230, N-(2-(4-(2-Bromo-4-(2-((2-chloro-4-(trifluoromethyl)phenyl)amino)-2-oxoethyl)-5-ethyl-7-oxo-4,7-dihydro-[1,2,4]triazolo[1,5-a]pyrimidin-6-yl)piperazin-1-yl)-2-oxoethyl)benzamide]
0.1 to 1 µM	CCc1c(N2CCN(C(=O)c3cc4c(OC)ccnc4[nH]3)CC2)c(=O)n2nc(C3=CCOCC3)nc2n1CC(=O)Nc1ccc(C(F)(F)F)cc1Cl [Example 302, N-(2-Chloro-4-(trifluoromethyl)phenyl)-2-(2-(3,6-dihydro-2H-pyran-4-yl)-5-ethyl-6-(4-(4-methoxy-1H-pyrrolo[2,3-b]pyridine-2-carbonyl)piperazin-1-yl)-7-oxo-[1,2,4]triazolo[1,5-a]pyrimidin-4(7H)-yl)acetamide]
0.1 to 1 µM	CCc1c(N2CCN(C(=O)C3CC3)CC2)c(=O)n2nc(C3=CCOCC3)nc2n1CC(=O)Nc1ccc(C(F)(F)F)cc1Cl [Example 13, N-(2-Chloro-4-(trifluoromethyl)phenyl)-2-(6-(4-(cyclopropanecarbonyl)piperazin-1-yl)-2-(3,6-dihydro-2H-pyran-4-yl)-5-ethyl-7-oxo-[1,2,4]triazolo[1,5-a]pyrimidin-4(7H)-yl)acetamide]
< 0.1 µM	CCc1c(N2CCN(C(=O)CNC(=O)c3ccccc3F)CC2)c(=O)n2nc(N3CCOCC3)nc2n1CC(=O)Nc1ccc(C(F)(F)F)cc1Cl [Example 245, N-(2-(4-(4-(2-((2-Chloro-4-(trifluoromethyl)phenyl)amino)-2-oxoethyl)-5-ethyl-2-morpholino-7-oxo-4,7-dihydro-[1,2,4]triazolo[1,5-a]pyrimidin-6-yl)piperazin-1-yl)-2-oxoethyl)-2-fluorobenzamide]
< 0.1 µM	CCc1c(N2CCN(C(=O)CN(C)C(=O)c3ccccc3)CC2)c(=O)n2nc(C3=CCOCC3)nc2n1CC(=O)Nc1ccc(C(F)(F)F)cc1Cl [Example 135, N-(2-(4-(4-(2-((2-Chloro-4-(trifluoromethyl)phenyl)amino)-2-oxoethyl)-2-(3,6-dihydro-2H-pyran-4-yl)-5-ethyl-7-oxo-4,7-dihydro-[1,2,4]triazolo[1,5-a]pyrimidin-6-yl)piperazin-1-yl)-2-oxoethyl)-N-methylbenzamide]
